Assay results taken from US10869931B2, “Polyethylene glycol-modified angiogenesis inhibitor HM-1 and application thereof” (NANJING ANJI BIOLOGICAL TECHNOLOGY CO.,LTD, priority 2016, dated 2020).
Where no end group is shown, it is not given here.

Legend:
sarcoma tumor cells = assay: MTT proliferation inhibition, sarcoma cells; assay type: cell-based, human; design: concentration or dose not given beside the values; conditions: 48 h
Experimental: (§1) The activity of mPEG-HM-1 to inhibit the growth of various tumor cells was examined by MTT assay. The tumor cells were cultured to a concentration of 90% or more in a 37° C., 5% CO2 incubator and collected by trypsinization. The cells were resuspended in the culture medium and counted under a microscope to adjust the cell concentration to 2×10^4 cells/mL, the cell suspension was inoculated into a 96-well plate at 100 μL/well and incubated overnight at 37° C. in a 5% CO2 incubator. mPEG-HM-1 was diluted with the culture solution to each predetermined concentration. Docetaxel is diluted to the final concentration with the culture medium. After the cells were fully attached, each dilution was added to a 96-well plate (100 μL/well). The mPEG-HM-1 dilution was added as a drug-administered group, and docetaxel was added as a positive control group, and a culture solution without any drug was used as a negative control group. Incubate for 48 h at 37° C. in a 5% CO2 incubator. 5 mg/mL of MTT was added to a 96-well plate at 20 μL per well, and incubation was continued for 4 hours. The medium was aspirated, dissolved in 150 μL of DMSO per well, and gently mixed by shaking for 10 min. The absorbance was measured at a measurement wavelength of 570 nm and a reference wavelength of 630 nm using a microplate reader, and the rate of growth inhibition (proliferation inhibition, PI) was calculated. The formula is as follows: PI (%)=1−administration group/negative group
(§2) The test was repeated 3 times independently, and the results obtained by the test were expressed as mean±SD, and the test results are shown in Table 15 to Table 18.

mouse spleen lymphocytes = assay: ConA-stimulated mouse spleen lymphocyte proliferation (MTT); assay type: cell-based; conditions: ConA 5 μg/mL, 48 h
Experimental: Tris-NH4Cl was used to break the red blood cells, and the cells were allowed to stand in an ice water bath for 4 min, centrifuged (1000 rpm×5 min), the supernatant was discarded, and the cells were washed twice with sterile PBS. Finally, cells were suspended in RPMI 1640 medium (5 mL) supplemented with 10% calf serum, counted, adjusted to a cell concentration of 5×10^6/mL, and cultured in a 96-well culture plate The test group consisted of blank control group, concanavalin A (ConA) group, dexamethasone (Dex) group (0.02 mg/mL) and mPEG-HM-1 group. […] The cells were cultured in a 37° C. cell culture chamber for 48 h. After the completion of the culture, 20 μL of MTT was added to each well, and the culture was continued for 4 h. Finally, all the solutions in each well were discarded, 100 μL of DMSO was added to each well, and the mixture was shaken and detected by a microplate reader OD value at 570 nm, 5 parallels per hole.

[1] = tested on: choroidal neovascularization in BN rats; assay: Laser-induced choroidal neovascularization in BN rats (FFA); assay type: in vivo, rat
Experimental: 6-8 weeks old male BN rats were anesthetized with 846 compound anesthetic 0.5 mL/kg administered intraperitoneally. The eye drops of compound tropamide eyes were used 5 minutes before laser photocoagulation, and the pupils of both eyes were fully scattered. Fix animals, with the aid of −53.00 D contact lens, around the optic disc and along the same distance from the optic disc 2PD, the laser beam photocoagulation were performed to make a total of 8 photo-condensation spots, with laser wavelength of 647.1 nm, power of 350 mW, photocoagulation spot diameter and time were 50 μm and 0.05 s, respectively. Immediately after photocoagulation, fundus photography was performed. FFA, histopathology and transmission electron microscopy were performed at 3, 7, 14, 21, and 28 days after photocoagulation.
It was confirmed by fundus photography and FFA examination that the fluorescein leakage of photocoagulation peaked on the 21st day after photocoagulation, and histopathological examination was performed at the same time. […] A large number of neovascular vessels were seen, and red blood cells were visible in the lumen. Microscopically, capillary cells in the choroidal melanocytes were cohesively altered and endothelial cells aggregated.
Rats that were successfully modeled were randomly divided into groups of 5 rats each. They were labeled as negative control group, mPEG-SC-HM-1 treatment group, mPEG2-NHS-HM-1 treatment group, mPEG-ALD-HM-1 treatment group and mPEG-bALD-HM-1 treatment group, respectively. Saline, mPEG-HM-1 (see Table 53 for dosing) was administered intravitreally, once daily for 1 week. FFA examinations were performed 3 days, 7 days, 14 days, and 28 days after administration of the modified peptides.

[2] = tested on: Ovarian cancer tumor cells; assay: MTT proliferation inhibition, ovarian cancer cells; assay type: cell-based, human; design: concentration or dose not given beside the values; conditions: 48 h
Experimental: as §1, §2

[3] = Day 3 after administration, 25 μg intravitreally once daily for 1 week (Table 53)
[4] = Day 3 after administration, 25 μg intravitreally once daily for 1 week (Table 53), total spots 290-296 by table
[5] = Day 7, 25 μg intravitreally once daily for 1 week (Table 53)
[6] = Day 7, 25 μg intravitreally once daily for 1 week (Table 53), total spots 182-188 by table
[7] = Day 14, 25 μg intravitreally once daily for 1 week (Table 53)
[8] = Day 14, 25 μg intravitreally once daily for 1 week (Table 53), total spots 132-138 by table
[9] = Day 28, 25 μg intravitreally once daily for 1 week (Table 53)
[10] = Day 28, 25 μg intravitreally once daily for 1 week (Table 53), total spots 67-71 by table
[11] = Day 3 after administration, 200 μg intravitreally once daily for 1 week (Table 53)
[12] = Day 3 after administration, 200 μg intravitreally once daily for 1 week (Table 53), total spots 290-296 by table
[13] = Day 7, 200 μg intravitreally once daily for 1 week (Table 53)
[14] = Day 7, 200 μg intravitreally once daily for 1 week (Table 53), total spots 182-188 by table
[15] = Day 14, 200 μg intravitreally once daily for 1 week (Table 53)
[16] = Day 14, 200 μg intravitreally once daily for 1 week (Table 53), total spots 132-138 by table
[17] = Day 28, 200 μg intravitreally once daily for 1 week (Table 53)
[18] = Day 28, 200 μg intravitreally once daily for 1 week (Table 53), total spots 67-71 by table

| Substance | rate of growth inhibition (sarcoma tumor cells) | A570 nm/A630 nm (mouse spleen lymphocytes; 5 μg/mL) | Inhibition Rate of spleen lymphocyte proliferation (mouse spleen lymphocytes; 5 μg/mL) | A570 nm/A630 nm (mouse spleen lymphocytes; 10 μg/mL) | Inhibition Rate of spleen lymphocyte proliferation (mouse spleen lymphocytes; 10 μg/mL) | A570 nm/A630 nm (mouse spleen lymphocytes; 20 μg/mL) | Inhibition Rate of spleen lymphocyte proliferation (mouse spleen lymphocytes; 20 μg/mL) | CNV Incidence rate [1, 3] | leakage Spots # [1, 4] | CNV Incidence rate [1, 5] | leakage Spots # [1, 6] | CNV Incidence rate [1, 7] | leakage Spots # [1, 8] | CNV Incidence rate [1, 9] | leakage Spots # [1, 10] | rate of growth inhibition [2] | A570 nm/A630 nm (mouse spleen lymphocytes; 40 μg/mL) | Inhibition Rate of spleen lymphocyte proliferation (mouse spleen lymphocytes; 40 μg/mL) | A570 nm/A630 nm (mouse spleen lymphocytes; 80 μg/mL) | Inhibition Rate of spleen lymphocyte proliferation (mouse spleen lymphocytes; 80 μg/mL) | further results |
| --- | --- | --- | --- | --- | --- | --- | --- | --- | --- | --- | --- | --- | --- | --- | --- | --- | --- | --- | --- | --- | --- |
| mPEG2-NHS5k-Arg-Gly-Ala-Asp-Arg-Ala-Gly-Gly-Gly-Gly-Arg-Gly-Asp ({mPEG2‑NHS 5 kDa}-RGADRAGGGGRGD) [mPEG2-NHS5k-HM-1] | 38.41 ± 11.10% | 0.6304 ± 0.0983 | 8.96% | 0.5624 ± 0.1098 | 18.78% | 0.4873 ± 0.1126 | 29.62% | 56.12% | 165 | 55.49% | 101 | 45.99% | 63 | 48.53% | 33 | 56.88 ± 21.07% | – | – | – | – | – |
| mPEG2-NHS10k-Arg-Gly-Ala-Asp-Arg-Ala-Gly-Gly-Gly-Gly-Arg-Gly-Asp ({mPEG2‑NHS 10 kDa}-RGADRAGGGGRGD) [mPEG2-NHS10k-HM-1] | 43.59 ± 12.39% | – | – | 0.6239 ± 0.1086 | 9.90% | 0.5533 ± 0.1067 | 20.09% | – | – | – | – | – | – | – | – | 60.69 ± 21.24% | 0.4747 ± 0.1174 | 31.44% | – | – | incidence of CNV ([1]; BN rats, 28 days after administration, intravitreal once daily for 1 week): 39.71%; CNV Incidence rate ([1]; Day 3 after administration, 50 μg intravitreally once daily for 1 week (Table 53)): 50.34%; leakage Spots # ([1]; Day 3 after administration, 50 μg intravitreally once daily for 1 week (Table 53), total spots 290-296 by table): 148; CNV Incidence rate ([1]; Day 7, 50 μg intravitreally once daily for 1 week (Table 53)): 48.35%; leakage Spots # ([1]; Day 7, 50 μg intravitreally once daily for 1 week (Table 53), total spots 182-188 by table): 88; CNV Incidence rate ([1]; Day 14, 50 μg intravitreally once daily for 1 week (Table 53)): 43.07%; leakage Spots # ([1]; Day 14, 50 μg intravitreally once daily for 1 week (Table 53), total spots 132-138 by table): 59; CNV Incidence rate ([1]; Day 28, 50 μg intravitreally once daily for 1 week (Table 53)): 39.71%; leakage Spots # ([1]; Day 28, 50 μg intravitreally once daily for 1 week (Table 53), total spots 67-71 by table): 27 |
| mPEG2-NHS40k-Arg-Gly-Ala-Asp-Arg-Ala-Gly-Gly-Gly-Gly-Arg-Gly-Asp ({mPEG2‑NHS 40 kDa}-RGADRAGGGGRGD) [mPEG2-NHS40k-HM-1] | 46.46 ± 11.54% | – | – | – | – | – | – | – | – | – | – | – | – | – | – | 61.59 ± 13.61% | 0.6191 ± 0.0984 | 10.59% | 0.4985 ± 0.1248 | 28.01% | A570 nm/A630 nm (mouse spleen lymphocytes; 160 μg/mL): 0.4827 ± 0.1136; Inhibition Rate of spleen lymphocyte proliferation (mouse spleen lymphocytes; 160 μg/mL): 30.28%; CNV Incidence rate [1, 11]: 51.02%; leakage Spots # [1, 12]: 150; CNV Incidence rate [1, 13]: 51.10%; leakage Spots # [1, 14]: 93; CNV Incidence rate [1, 15]: 44.53%; leakage Spots # [1, 16]: 61; CNV Incidence rate [1, 17]: 41.18%; leakage Spots # [1, 18]: 28 |
| mPEG-ALD5k-Arg-Gly-Ala-Asp-Arg-Ala-Gly-Gly-Gly-Gly-Arg-Gly-Asp ({mPEG‑ALD 5 kDa}-RGADRAGGGGRGD) [mPEG-ALD5k-HM-1] | 38.41 ± 12.53% | 0.6241 ± 0.0917 | 9.14% | 0.5448 ± 0.1072 | 20.68% | 0.4779 ± 0.1178 | 30.42% | 55.17% | 160 | 52.75% | 96 | 46.97% | 62 | 46.48% | 33 | 65.81 ± 20.42% | – | – | – | – | – |
| mPEG-ALD20k-Arg-Gly-Ala-Asp-Arg-Ala-Gly-Gly-Gly-Gly-Arg-Gly-Asp ({mPEG‑ALD 20 kDa}-RGADRAGGGGRGD) [mPEG-ALD20k-HM-1] | 50.96 ± 11.68% | – | – | – | – | 0.6035 ± 0.0989 | 12.14% | – | – | – | – | – | – | – | – | 80.68 ± 21.69% | 0.4876 ± 0.1259 | 29.02% | 0.4406 ± 0.1074 | 35.85% | CNV Incidence rate ([1]; Day 3 after administration, 100 μg intravitreally once daily for 1 week (Table 53)): 51.72%; leakage Spots # ([1]; Day 3 after administration, 100 μg intravitreally once daily for 1 week (Table 53), total spots 290-296 by table): 150; CNV Incidence rate ([1]; Day 7, 100 μg intravitreally once daily for 1 week (Table 53)): 48.90%; leakage Spots # ([1]; Day 7, 100 μg intravitreally once daily for 1 week (Table 53), total spots 182-188 by table): 89; CNV Incidence rate ([1]; Day 14, 100 μg intravitreally once daily for 1 week (Table 53)): 45.45%; leakage Spots # ([1]; Day 14, 100 μg intravitreally once daily for 1 week (Table 53), total spots 132-138 by table): 60; CNV Incidence rate ([1]; Day 28, 100 μg intravitreally once daily for 1 week (Table 53)): 40.85%; leakage Spots # ([1]; Day 28, 100 μg intravitreally once daily for 1 week (Table 53), total spots 67-71 by table): 29 |
| mPEG-ALD40k-Arg-Gly-Ala-Asp-Arg-Ala-Gly-Gly-Gly-Gly-Arg-Gly-Asp ({mPEG‑ALD 40 kDa}-RGADRAGGGGRGD) [mPEG-ALD40k-HM-1] | 45.93 ± 10.77% | – | – | – | – | – | – | – | – | – | – | – | – | – | – | 74.61 ± 20.09% | 0.6176 ± 0.0998 | 10.09% | 0.5040 ± 0.1239 | 26.63% | A570 nm/A630 nm (mouse spleen lymphocytes; 160 μg/mL): 0.4770 ± 0.1057; Inhibition Rate of spleen lymphocyte proliferation (mouse spleen lymphocytes; 160 μg/mL): 30.56%; CNV Incidence rate [1, 11]: 52.41%; leakage Spots # [1, 12]: 152; CNV Incidence rate [1, 13]: 50.55%; leakage Spots # [1, 14]: 92; CNV Incidence rate [1, 15]: 46.97%; leakage Spots # [1, 16]: 62; CNV Incidence rate [1, 17]: 42.25%; leakage Spots # [1, 18]: 30 |
